Among the data in article PMC11167047 (Cell Death Discovery, 2024) are residual kinase activity values, retold here.

Experiment in all cases: kinome screen (33PanQinase)
What all share (assay type): biochemical

The target of one assay is T1, AuroraB (Homo sapiens, UniProt Q96GD4).
T1 construct: purchased Reaction Biology Europe GmbH (formerly ProQinase)
As to the method: (§1) The Kinome Screening was performed by Reaction Biology Europe GmbH (http://reactionbiology.com; Freiburg i. Br., Germany).

Another assay has as its target T2, GRK3 (Homo sapiens, UniProt P35626).
T2 construct: purchased Reaction Biology Europe GmbH (formerly ProQinase)
T2 sequence (P35626 1-688): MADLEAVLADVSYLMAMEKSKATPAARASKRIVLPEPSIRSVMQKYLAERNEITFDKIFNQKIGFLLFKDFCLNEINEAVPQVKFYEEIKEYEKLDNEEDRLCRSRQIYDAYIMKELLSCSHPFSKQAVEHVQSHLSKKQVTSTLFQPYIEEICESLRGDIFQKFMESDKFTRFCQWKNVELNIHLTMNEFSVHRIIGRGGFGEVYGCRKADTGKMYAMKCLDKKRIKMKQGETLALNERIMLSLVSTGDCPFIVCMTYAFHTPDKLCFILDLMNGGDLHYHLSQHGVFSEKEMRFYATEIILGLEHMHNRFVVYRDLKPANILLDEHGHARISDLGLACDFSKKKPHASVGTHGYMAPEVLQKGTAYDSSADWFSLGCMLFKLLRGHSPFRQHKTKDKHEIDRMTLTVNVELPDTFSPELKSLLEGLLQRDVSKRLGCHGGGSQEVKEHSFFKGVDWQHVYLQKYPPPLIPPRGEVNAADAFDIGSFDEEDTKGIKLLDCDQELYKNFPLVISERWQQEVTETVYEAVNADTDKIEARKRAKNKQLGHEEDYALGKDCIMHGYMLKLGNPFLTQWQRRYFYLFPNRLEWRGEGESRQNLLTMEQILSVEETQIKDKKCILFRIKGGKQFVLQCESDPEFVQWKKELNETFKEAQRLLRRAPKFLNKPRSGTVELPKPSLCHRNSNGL
As to the method: as §1

Another assay concerns the target T3, IKKβ (Homo sapiens, UniProt O14920).
T3 construct: purchased Reaction Biology Europe GmbH (formerly ProQinase)
T3 sequence (O14920 1-756): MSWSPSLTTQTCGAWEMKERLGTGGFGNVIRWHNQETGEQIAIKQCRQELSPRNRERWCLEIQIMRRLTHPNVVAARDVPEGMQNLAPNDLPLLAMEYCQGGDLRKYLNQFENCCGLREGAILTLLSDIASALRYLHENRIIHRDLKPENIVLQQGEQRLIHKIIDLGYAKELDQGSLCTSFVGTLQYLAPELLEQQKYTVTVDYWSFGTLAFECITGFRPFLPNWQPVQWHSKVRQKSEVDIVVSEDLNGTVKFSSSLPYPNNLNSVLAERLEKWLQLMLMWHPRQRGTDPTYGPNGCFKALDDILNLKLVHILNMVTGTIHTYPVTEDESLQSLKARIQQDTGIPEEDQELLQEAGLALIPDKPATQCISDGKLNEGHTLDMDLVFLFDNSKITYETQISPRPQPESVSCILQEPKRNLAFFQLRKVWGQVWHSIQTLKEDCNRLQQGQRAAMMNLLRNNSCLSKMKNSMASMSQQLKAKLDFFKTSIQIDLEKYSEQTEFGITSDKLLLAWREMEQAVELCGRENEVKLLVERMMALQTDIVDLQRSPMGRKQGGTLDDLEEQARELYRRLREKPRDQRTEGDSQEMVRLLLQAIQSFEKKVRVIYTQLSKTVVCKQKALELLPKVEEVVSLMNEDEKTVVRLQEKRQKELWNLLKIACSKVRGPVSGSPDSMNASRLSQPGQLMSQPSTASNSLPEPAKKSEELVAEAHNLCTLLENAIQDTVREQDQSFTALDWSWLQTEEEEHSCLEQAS
The procedure:
as §1

In a further assay the target is T4, FGFR2 (Homo sapiens, UniProt P21802).
T4 construct: purchased Reaction Biology Europe GmbH (formerly ProQinase)
T4 sequence (P21802 22-821): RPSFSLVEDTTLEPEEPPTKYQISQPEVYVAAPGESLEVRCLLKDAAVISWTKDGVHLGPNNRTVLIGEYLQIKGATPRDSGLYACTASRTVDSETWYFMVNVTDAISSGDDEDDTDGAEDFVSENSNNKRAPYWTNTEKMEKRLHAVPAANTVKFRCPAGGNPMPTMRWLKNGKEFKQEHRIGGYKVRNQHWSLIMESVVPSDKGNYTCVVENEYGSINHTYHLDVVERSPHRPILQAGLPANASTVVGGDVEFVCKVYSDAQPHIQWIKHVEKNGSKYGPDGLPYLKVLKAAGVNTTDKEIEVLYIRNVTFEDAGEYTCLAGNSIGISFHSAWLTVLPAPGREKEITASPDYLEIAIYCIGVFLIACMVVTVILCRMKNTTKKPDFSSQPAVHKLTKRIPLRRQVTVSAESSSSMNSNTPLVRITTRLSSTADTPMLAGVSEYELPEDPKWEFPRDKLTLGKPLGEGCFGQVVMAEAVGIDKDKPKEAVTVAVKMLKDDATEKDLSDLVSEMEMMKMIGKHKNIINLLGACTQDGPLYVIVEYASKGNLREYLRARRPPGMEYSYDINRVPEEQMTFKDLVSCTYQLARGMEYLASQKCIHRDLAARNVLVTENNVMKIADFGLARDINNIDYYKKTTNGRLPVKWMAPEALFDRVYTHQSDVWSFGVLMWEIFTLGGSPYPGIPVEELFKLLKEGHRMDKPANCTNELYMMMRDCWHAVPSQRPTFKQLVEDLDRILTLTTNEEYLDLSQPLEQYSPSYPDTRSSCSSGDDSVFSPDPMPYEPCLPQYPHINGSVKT
As to the method:
as §1

The target in the next assay is T5, DMPK (Homo sapiens, UniProt Q09013).
T5 construct: purchased Reaction Biology Europe GmbH (formerly ProQinase)
T5 sequence (Q09013 1-629): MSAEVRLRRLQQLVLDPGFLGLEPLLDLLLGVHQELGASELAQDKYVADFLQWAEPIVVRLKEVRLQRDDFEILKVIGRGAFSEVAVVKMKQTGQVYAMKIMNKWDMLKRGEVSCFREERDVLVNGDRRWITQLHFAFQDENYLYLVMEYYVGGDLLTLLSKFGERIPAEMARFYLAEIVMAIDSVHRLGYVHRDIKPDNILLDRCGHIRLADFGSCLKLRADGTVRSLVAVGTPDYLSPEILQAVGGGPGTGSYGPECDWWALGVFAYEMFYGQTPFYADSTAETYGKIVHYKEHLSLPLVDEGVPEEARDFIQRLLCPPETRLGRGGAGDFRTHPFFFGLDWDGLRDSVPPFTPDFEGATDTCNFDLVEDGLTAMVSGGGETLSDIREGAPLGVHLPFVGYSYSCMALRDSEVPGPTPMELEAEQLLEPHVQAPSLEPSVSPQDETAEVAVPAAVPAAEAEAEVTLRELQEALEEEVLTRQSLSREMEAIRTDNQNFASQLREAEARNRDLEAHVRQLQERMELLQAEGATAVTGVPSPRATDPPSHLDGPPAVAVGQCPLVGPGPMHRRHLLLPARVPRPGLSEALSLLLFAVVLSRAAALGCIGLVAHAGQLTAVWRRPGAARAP
As to the method:
as §1

Another assay addresses T6, PASK (Homo sapiens, UniProt Q96RG2).
T6 construct: purchased Reaction Biology Europe GmbH (formerly ProQinase)
The procedure: as §1

The target of another assay is T7, MEK2 (Homo sapiens, UniProt P36507).
T7 construct: purchased Reaction Biology Europe GmbH (formerly ProQinase)
T7 sequence (P36507 whole entry): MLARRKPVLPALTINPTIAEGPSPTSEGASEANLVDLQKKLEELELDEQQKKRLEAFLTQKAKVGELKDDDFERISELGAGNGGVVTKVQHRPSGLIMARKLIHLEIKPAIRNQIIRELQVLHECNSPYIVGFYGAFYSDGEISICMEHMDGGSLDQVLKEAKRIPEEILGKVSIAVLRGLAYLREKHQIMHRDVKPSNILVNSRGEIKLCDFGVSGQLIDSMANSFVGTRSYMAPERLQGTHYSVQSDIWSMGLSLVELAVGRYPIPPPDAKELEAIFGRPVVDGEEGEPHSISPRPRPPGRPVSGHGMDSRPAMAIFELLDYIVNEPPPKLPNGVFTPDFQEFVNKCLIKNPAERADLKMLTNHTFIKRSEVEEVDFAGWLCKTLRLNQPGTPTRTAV
As to the method:
as §1

T6 sequence (Q96RG2 whole entry): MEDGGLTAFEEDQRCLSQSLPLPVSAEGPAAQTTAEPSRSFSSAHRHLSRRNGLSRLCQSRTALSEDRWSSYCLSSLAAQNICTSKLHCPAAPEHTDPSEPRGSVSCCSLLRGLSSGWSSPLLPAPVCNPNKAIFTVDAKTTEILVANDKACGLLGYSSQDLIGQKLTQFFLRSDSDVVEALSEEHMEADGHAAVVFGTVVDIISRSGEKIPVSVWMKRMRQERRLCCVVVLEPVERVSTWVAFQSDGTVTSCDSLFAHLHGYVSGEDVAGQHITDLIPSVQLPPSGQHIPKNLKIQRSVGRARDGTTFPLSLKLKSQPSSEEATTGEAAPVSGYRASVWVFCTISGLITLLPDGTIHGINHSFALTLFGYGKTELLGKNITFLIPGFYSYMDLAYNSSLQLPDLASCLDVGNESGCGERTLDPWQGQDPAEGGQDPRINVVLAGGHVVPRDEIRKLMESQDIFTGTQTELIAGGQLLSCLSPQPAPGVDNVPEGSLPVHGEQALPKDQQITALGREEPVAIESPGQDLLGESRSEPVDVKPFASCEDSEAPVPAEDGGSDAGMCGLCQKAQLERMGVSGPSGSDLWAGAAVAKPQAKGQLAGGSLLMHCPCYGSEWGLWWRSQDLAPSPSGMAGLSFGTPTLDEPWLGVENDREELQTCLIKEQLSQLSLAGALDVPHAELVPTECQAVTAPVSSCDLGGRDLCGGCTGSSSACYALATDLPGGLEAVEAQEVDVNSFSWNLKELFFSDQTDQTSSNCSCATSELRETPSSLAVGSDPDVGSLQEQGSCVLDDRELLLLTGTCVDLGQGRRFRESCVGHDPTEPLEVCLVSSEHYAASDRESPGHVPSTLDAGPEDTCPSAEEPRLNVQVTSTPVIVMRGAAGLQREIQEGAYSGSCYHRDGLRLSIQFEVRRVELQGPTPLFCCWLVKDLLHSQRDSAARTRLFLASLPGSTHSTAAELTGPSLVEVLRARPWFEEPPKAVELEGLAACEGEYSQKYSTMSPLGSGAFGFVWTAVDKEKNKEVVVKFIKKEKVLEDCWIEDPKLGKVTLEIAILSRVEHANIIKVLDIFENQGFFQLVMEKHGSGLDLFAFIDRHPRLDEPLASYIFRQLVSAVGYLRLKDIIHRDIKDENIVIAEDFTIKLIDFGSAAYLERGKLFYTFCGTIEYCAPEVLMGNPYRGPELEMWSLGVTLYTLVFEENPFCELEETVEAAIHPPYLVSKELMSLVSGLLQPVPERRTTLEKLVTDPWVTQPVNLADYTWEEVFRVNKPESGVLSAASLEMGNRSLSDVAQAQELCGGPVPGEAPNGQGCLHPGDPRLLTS
T1 sequence (Q96GD4 whole entry): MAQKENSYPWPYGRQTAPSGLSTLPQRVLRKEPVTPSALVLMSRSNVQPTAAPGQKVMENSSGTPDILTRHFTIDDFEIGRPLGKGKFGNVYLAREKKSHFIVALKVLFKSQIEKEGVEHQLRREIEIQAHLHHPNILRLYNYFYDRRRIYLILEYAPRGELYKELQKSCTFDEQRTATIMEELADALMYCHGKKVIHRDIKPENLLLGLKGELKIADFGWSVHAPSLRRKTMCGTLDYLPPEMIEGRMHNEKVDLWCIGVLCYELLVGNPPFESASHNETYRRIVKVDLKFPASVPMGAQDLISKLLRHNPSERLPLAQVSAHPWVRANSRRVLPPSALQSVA

For the compound `c1ccc(CNc2cc(-c3c[nH]c4ncccc34)ccn2)cc1` [meriolin 36], the residual kinase activity at AuroraB (0.3 µM) is recorded as 67 % of control; on AuroraB (3 µM) it was 26 % of control; at GRK3 (0.3 µM), 98 % of control; on GRK3 (3 µM) it was 74 % of control; on IKKβ (0.3 µM), 80 % of control; on IKKβ (3 µM), 36 % of control. Also, the residual kinase activity on FGFR2 (0.3 µM) is recorded as 52 % of control; on FGFR2 (3 µM), 9 % of control; at DMPK (0.3 µM) it was 3 % of control; on DMPK (3 µM) it was -2 % of control; at PASK (0.3 µM) it was 3 % of control; at PASK (3 µM) it was 0 % of control. In addition, the figures for the residual kinase activity at MEK2 (0.3 µM) and at MEK2 (3 µM) were 13 % of control and 3 % of control, respectively.

Regarding `COc1ccnc2[nH]cc(-c3cc(N)nc(N)c3)c12` [meriolin 16], the residual kinase activity on AuroraB (0.03 µM) was 85 % of control; on AuroraB (0.3 µM) it was 61 % of control; on GRK3 (0.03 µM) it was 111 % of control; on GRK3 (0.3 µM), 107 % of control; on IKKβ (0.03 µM), 85 % of control; at IKKβ (0.3 µM), 64 % of control. Moreover, the residual kinase activity was 94 % of control at FGFR2 (0.03 µM); 85 % of control on FGFR2 (0.3 µM); 86 % of control at DMPK (0.03 µM); 63 % of control on DMPK (0.3 µM); 82 % of control on PASK (0.03 µM); 39 % of control at PASK (0.3 µM). Moreover, the residual kinase activity at MEK2 (0.03 µM) is 66 % of control; on MEK2 (0.3 µM), 48 % of control.
